In test [1] the target is human Factor XIa (Homo sapiens (Human), UniProt P03951). Nature of the test: Factor XIa Assay (fluorogenic substrate GPR-AFC). Type of test: biochemical. As to conditions: Factor XIa (FXIa).
The target of test [2] is Human plasma kallikrein (Homo sapiens (Human), UniProt P03952). Nature of the test: Kallikrein Assay (fluorogenic substrate Acetyl-K-P-R-AFC). Type of test: biochemical. The note with it: Plasma Kallikrein (PKal). The method, boiled down:
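Ki is derived from IC50 with the Cheng-Prusoff equation, and IC50 from the inflection point of a four-parameter logistic curve. The rate of AFC release is read with 0.5 nM purified enzyme and […] substrate at room temperature or 37 °C.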

Some results are limits rather than exact numbers.

Human plasma kallikrein, sequence (P03952 391-638): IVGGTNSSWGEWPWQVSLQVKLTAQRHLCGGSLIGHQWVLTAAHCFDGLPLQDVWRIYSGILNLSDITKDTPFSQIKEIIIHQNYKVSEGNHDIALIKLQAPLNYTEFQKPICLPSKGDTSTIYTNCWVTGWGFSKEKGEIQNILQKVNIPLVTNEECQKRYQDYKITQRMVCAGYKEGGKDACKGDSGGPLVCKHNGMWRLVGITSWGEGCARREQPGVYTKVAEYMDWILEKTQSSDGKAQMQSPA
Human plasma kallikrein, sequence (P03952 20-390 partner): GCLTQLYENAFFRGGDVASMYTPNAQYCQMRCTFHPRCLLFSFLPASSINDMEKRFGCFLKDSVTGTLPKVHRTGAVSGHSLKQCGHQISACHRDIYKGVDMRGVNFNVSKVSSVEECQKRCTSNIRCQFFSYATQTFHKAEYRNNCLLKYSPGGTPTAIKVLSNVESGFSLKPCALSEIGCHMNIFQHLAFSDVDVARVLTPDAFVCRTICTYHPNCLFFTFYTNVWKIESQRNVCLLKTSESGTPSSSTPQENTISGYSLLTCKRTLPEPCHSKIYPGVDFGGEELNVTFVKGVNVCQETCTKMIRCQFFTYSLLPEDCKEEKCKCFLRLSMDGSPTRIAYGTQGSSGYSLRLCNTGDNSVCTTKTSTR
human Factor XIa, sequence (P03951 388-625 limits assumed): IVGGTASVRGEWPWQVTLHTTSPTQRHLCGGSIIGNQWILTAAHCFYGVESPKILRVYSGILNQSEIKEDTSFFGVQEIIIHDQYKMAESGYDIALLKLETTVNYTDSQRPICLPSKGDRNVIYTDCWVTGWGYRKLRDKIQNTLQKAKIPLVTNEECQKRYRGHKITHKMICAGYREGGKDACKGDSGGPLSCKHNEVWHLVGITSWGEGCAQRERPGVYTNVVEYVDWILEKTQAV
human Factor XIa, sequence (P03951 19-387 partner limits assumed): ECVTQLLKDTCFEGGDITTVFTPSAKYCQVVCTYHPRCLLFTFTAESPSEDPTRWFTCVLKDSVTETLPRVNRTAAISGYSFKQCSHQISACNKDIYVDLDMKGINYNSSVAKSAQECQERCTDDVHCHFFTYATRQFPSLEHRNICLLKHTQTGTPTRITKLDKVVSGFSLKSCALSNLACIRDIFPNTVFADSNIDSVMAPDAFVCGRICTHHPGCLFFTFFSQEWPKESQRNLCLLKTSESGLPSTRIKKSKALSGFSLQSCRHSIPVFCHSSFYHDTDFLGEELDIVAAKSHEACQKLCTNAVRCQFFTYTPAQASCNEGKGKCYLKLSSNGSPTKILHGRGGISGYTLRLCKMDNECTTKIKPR

Broadly, the IC50 is the concentration that gives 50% inhibition. Regarding `Cc1cc(Cn2cc(NC(=O)c3nc(-c4c(C(F)F)ccc(Cl)c4F)cnc3C(C)O)cn2)nnc1N1C[C@H]2C[C@H]2C1=O` (single isomer, unassigned) [Example 208], the values for the IC50 in test [1] and in test [2] were 1050 nM and 12.7 nM, respectively.
On the same counts, the results for `Cc1cc(Cn2cc(NC(=O)c3nc(-c4c(C(F)F)ccc(Cl)c4F)cnc3C(C)O)cn2)nnc1N1C[C@H]2C[C@H]2C1=O` (single isomer, unassigned) [Example 209] are 167 nM and 3.8 nM.
On the same counts, the results for `Cc1cc(C(C)n2cc(NC(=O)c3nc(-c4c(C(F)F)ccc(Cl)c4F)cnc3C(C)O)cn2)cnc1N1C[C@H]2C[C@H]2C1=O` (single isomer, unassigned) [Example 210, 6-(3-Chloro-6-(difluoromethyl)-2-fluorophenyl)-3-((S or R)-1-hydroxyethyl)-N-(1-((S or R)-1-(5-methyl-6-((1R,5S)-2-oxo-3-azabicyclo[3.1.0]hexan-3-yl)pyridin-3-yl)ethyl)-1H-pyrazol-4-yl)pyrazine-2-carboxamide] are 186 nM and 0.4 nM.
In the case of `Cc1cc(C(C)n2cc(NC(=O)c3nc(-c4c(C(F)F)ccc(Cl)c4F)cnc3C(C)O)cn2)cnc1N1C[C@H]2C[C@H]2C1=O` (single isomer, unassigned) [Example 211, 6-(3-Chloro-6-(difluoromethyl)-2-fluorophenyl)-3-((R or S)-1-hydroxyethyl)-N-(1-((S or R)-1-(5-methyl-6-((1R,5S)-2-oxo-3-azabicyclo[3.1.0]hexan-3-yl)pyridin-3-yl)ethyl)-1H-pyrazol-4-yl)pyrazine-2-carboxamide], the concentration for half-maximal inhibition (IC50) stood at 50 nM in test [1] and 0.6 nM in test [2].
On the same counts, the results for `Cc1cc(C(C)n2cc(NC(=O)c3nc(-c4c(C(F)F)ccc(Cl)c4F)cnc3C(C)O)cn2)cnc1N1C[C@H]2C[C@H]2C1=O` (single isomer, unassigned) [Example 212, 6-(3-Chloro-6-(difluoromethyl)-2-fluorophenyl)-3-((S or R)-1-hydroxyethyl)-N-(1-((R or S)-1-(5-methyl-6-((1R,5S)-2-oxo-3-azabicyclo[3.1.0]hexan-3-yl)pyridin-3-yl)ethyl)-1H-pyrazol-4-yl)pyrazine-2-carboxamide] are 354 nM and 1 nM.
With `Cc1cc(C(C)n2cc(NC(=O)c3nc(-c4c(C(F)F)ccc(Cl)c4F)cnc3C(C)O)cn2)cnc1N1C[C@H]2C[C@H]2C1=O` (single isomer, unassigned) [Example 213, 6-(3-Chloro-6-(difluoromethyl)-2-fluorophenyl)-3-((Ror S)-1-hydroxyethyl)-N-(1-((R or S)-1-(5-methyl-6-((1R,5S)-2-oxo-3-azabicyclo[3.1.0]hexan-3-yl)pyridin-3-yl)ethyl)-1H-pyrazol-4-yl)pyrazine-2-carboxamide], the IC50 is 2030 nM in test [1] and 0.9 nM in test [2].
On the same counts, the results for `COc1cc(C(C)n2cc(NC(=O)c3nc(-c4c(C(F)F)ccc(Cl)c4F)cnc3C)cn2)cnc1N1C[C@H]2C[C@H]2C1=O` (single isomer, unassigned) [Example 218, 6-(3-Chloro-6-(difluoromethyl)-2-fluorophenyl)-N(1-((S or R)-1-(5-methoxy-6-((1R,5S)-2-oxo-3-azabicyclo[3.1.0]hexan-3-yl)pyridin-3-yl)ethyl)-1H-pyrazol-4-yl)-3-methylpyrazine-2-carboxamide] are 414 nM and 1.8 nM.
`COc1cc(C(C)n2cc(NC(=O)c3nc(-c4c(C(F)F)ccc(Cl)c4F)cnc3C)cn2)cnc1N1C[C@H]2C[C@H]2C1=O` (single isomer, unassigned) [Example 219, 6-(3-Chloro-6-(difluoromethyl)-2-fluorophenyl)-N-(1-((R or S)-1-(5-methoxy-6-((1R,5S)-2-oxo-3-azabicyclo[3.1.0]hexan-3-yl)pyridin-3-yl)ethyl)-1H-pyrazol-4-yl)-3-methylpyrazine-2-carboxamide]: the IC50 worked out at 549 nM in test [1] and 0.3 nM in test [2].
Regarding `Cc1ncc(-c2c(C(F)F)ccc(Cl)c2F)nc1C(=O)Nc1cnn(C(C)c2cnc(N3C[C@H]4C[C@H]4C3=O)c(OC(F)F)c2C)c1` (single isomer, unassigned) [Example 224], the IC50 in test [1] was over 10000 nM; in test [2] it was 66.1 nM.
Regarding `Cc1ncc(-c2c(C(F)F)ccc(Cl)c2F)nc1C(=O)Nc1cnn(C(C)c2cnc(N3C[C@H]4C[C@H]4C3=O)c(OC(F)F)c2C)c1` (single isomer, unassigned) [Example 225], the IC50 is 5740 nM in test [1] and 0.9 nM in test [2].
For the compound `Cc1cc(C(C)n2cc(NC(=O)c3nc(-c4c(C(F)F)ccc(Cl)c4F)cnc3C(C)O)cn2)nnc1N1C[C@H]2C[C@H]2C1=O` (single isomer, unassigned) [Example 229, 6-(3-Chloro-6-(difluoromethyl)-2-fluorophenyl)-3-((R or S)-1-hydroxyethyl)-N-(1-((S or R)-1-(5-methyl-6-((1R,5S)-2-oxo-3-azabicyclo[3.1.0]hexan-3-yl)pyridazin-3-yl)ethyl)-1H-pyrazol-4-yl)pyrazine-2-carboxamide], the IC50 turned out to be 178 nM in test [1] and 0.37 nM in test [2].
For `Cc1cc(C(C)n2cc(NC(=O)c3nc(-c4c(C(F)F)ccc(Cl)c4F)cnc3C(C)O)cn2)nnc1N1C[C@H]2C[C@H]2C1=O` (single isomer, unassigned) [Example 230, 6-(3-Chloro-6-(difluoromethyl)-2-fluorophenyl)-3-((S or R)-1-hydroxyethyl)-N-(1-((S or R)-1-(5-methyl-6-((1R,5S)-2-oxo-3-azabicyclo[3.1.0]hexan-3-yl)pyridazin-3-yl)ethyl)-1H-pyrazol-4-yl)pyrazine-2-carboxamide], the IC50 was 1330 nM in test [1] and 1.1 nM in test [2].
With `Cc1cc(C(C)n2cc(NC(=O)c3nc(-c4c(C(F)F)ccc(Cl)c4F)cnc3C(C)O)cn2)nnc1N1C[C@H]2C[C@H]2C1=O` (single isomer, unassigned) [Example 231, 6-(3-Chloro-6-(difluoromethyl)-2-fluorophenyl)-3-((R or S)-1-hydroxyethyl)-N-(1-((R or S)-1-(5-methyl-6-((1R,5S)-2-oxo-3-azabicyclo[3.1.0]hexan-3-yl)pyridazin-3-yl)ethyl)-1H-pyrazol-4-yl)pyrazine-2-carboxamide], the IC50 was 903 nM in test [1] and 5 nM in test [2].
`Cc1cc(C(C)n2cc(NC(=O)c3nc(-c4c(C(F)F)ccc(Cl)c4F)cnc3C(C)O)cn2)nnc1N1C[C@H]2C[C@H]2C1=O` (single isomer, unassigned) [Example 232, 6-(3-Chloro-6-(difluoromethyl)-2-fluorophenyl)-3-((S or R)-1-hydroxyethyl)-N-(1-((R or S)-1-(5-methyl-6-((1R,5S)-2-oxo-3-azabicyclo[3.1.0]hexan-3-yl)pyridazin-3-yl)ethyl)-1H-pyrazol-4-yl)pyrazine-2-carboxamide]: the IC50 came out at 194 nM in test [1] and 1.8 nM in test [2].
On the same counts, the results for `Cc1ncc(-c2c(C#N)ccc(Cl)c2F)nc1C(=O)Nc1cnn(C(C)c2cnc(N3C[C@H]4C[C@H]4C3=O)c(C)n2)c1` (single isomer, unassigned) [Example 234, 6-(3-Chloro-6-cyano-2-fluorophenyl)-3-methyl-N-(1-((R or S)-1-(6-methyl-5-((1R,5S)-2-oxo-3-azabicyclo[3.1.0]hexan-3-yl)pyrazin-2-yl)ethyl)-1H-pyrazol-4-yl)pyrazine-2-carboxamide] are 679 nM and 1 nM.
On the same counts, the results for `Cc1ncc(-c2c(C#N)ccc(Cl)c2F)nc1C(=O)Nc1cnn(C(C)c2cnc(N3C[C@H]4C[C@H]4C3=O)c(C)n2)c1` (single isomer, unassigned) [Example 235, 6-(3-Chloro-6-cyano-2-fluorophenyl)-3-methyl-N-(1-((S or R)-1-(6-methyl-5-((1R,5S)-2-oxo-3-azabicyclo[3.1.0]hexan-3-yl)pyrazin-2-yl)ethyl)-1H-pyrazol-4-yl)pyrazine-2-carboxamide] are 2060 nM and 0.4 nM.
Consider `Cc1cc(C(C)n2cc(NC(=O)c3nc(-c4c(C#N)ccc(Cl)c4F)cnc3C)cn2)nnc1N1C[C@H]2C[C@H]2C1=O` (single isomer, unassigned) [Example 236, 6-(3-Chloro-6-cyano-2-fluorophenyl)-3-methyl-N-(1-((R or S)-1-(5-methyl-6-((1R,5S)-2-oxo-3-azabicyclo[3.1.0]hexan-3-yl)pyridazin-3-yl)ethyl)-1H-pyrazol-4-yl)pyrazine-2-carboxamide], for which the values for the half-inhibitory concentration (IC50) in test [1] and in test [2] were 750 nM and 0.7 nM, respectively.
On the same counts, the results for `Cc1cc(C(C)n2cc(NC(=O)c3nc(-c4c(C#N)ccc(Cl)c4F)cnc3C)cn2)nnc1N1C[C@H]2C[C@H]2C1=O` (single isomer, unassigned) [Example 237, 6-(3-Chloro-6-cyano-2-fluorophenyl)-3-methyl-N-(1-((S or R)-1-(5-methyl-6-((1R,5S)-2-oxo-3-azabicyclo[3.1.0]hexan-3-yl)pyridazin-3-yl)ethyl)-1H-pyrazol-4-yl)pyrazine-2-carboxamide] are 561 nM and 4.3 nM.
With `CCc1ncc(-c2c(C(F)F)ccc(Cl)c2F)nc1C(=O)Nc1cnn(C(C)c2cc(C)c(N3C[C@H]4C[C@H]4C3=O)nn2)c1` (single isomer, unassigned) [Example 238, 6-(3-Chloro-6-(difluoromethyl)-2-fluorophenyl)-3-ethyl-N-(1-((R or S)-1-(5-methyl-6-((1R,5S)-2-oxo-3-azabicyclo[3.1.0]hexan-3-yl)pyridazin-3-yl)ethyl)-1H-pyrazol-4-yl)pyrazine-2-carboxamide], the values for the IC50 in test [1] and in test [2] were 734 nM and 6.3 nM, respectively.

(Values after patent publication US20230286958A1, “PLASMA KALLIKREIN INHIBITORS” (Merck Sharp & Dohme LLC, priority 2020, published 2023).)
